Measurements published in patent publication US10124076B2, “Imaging agents and methods of use thereof” (Huntington Medical Research Institutes, priority 2007, dated 2018).

What was measured:
[1] = T1 relaxation time of the hyperpolarized product, experimentally determined; assay type: physicochemical
Method: Sub-second carbon imaging is greatly simplified when the signal of interest exceeds the background signal from natural abundance resonances. This is possible when a ^13C hyperpolarized agent is injected. […] Long T1 (in excess of ten seconds) is obtained for ^13C in small molecules at sites where there is no directly attached proton. Deuteration can be used to achieve this (e.g., glucose) and it occurs naturally for carbonyls. Enhancements in excess of 1000 from hyperpolarization are obtained in the first 5 T1 (i.e., imaging and spectroscopy experiment should be accomplished within 100-225 seconds after hyperpolarizing the molecules). For the molecules proposed, the hyperpolarization decays with a time constant of 20-45 seconds (T1 relaxation time of the agent) and therefore long scan times are not feasible. In order to overcome this problem, the inventors have successfully reprogrammed several fast imaging pulse sequences with multinuclear capability (multinuclear pulse sequences, broadband amplifier, and multinuclear coils).
Specifically, the inventors have identified four water soluble biomolecules for hyperpolarization. The four molecules can be either commercially obtained or custom synthesized. In the cases of hyperpolarization by PASADENA, both the precursors and the hydrogenated products are water soluble and the hydrogenation experiments have achieved high yields. T1 times were experimentally determined.

[2] = DNP hyperpolarization in HyperSense polarizer, 13C NMR decay of magnetization; details: DNP hyperpolarized
From the text: FIG. 9. ^13C NMR spectrum of DNP hyperpolarized CD3 ^13COO^−Na using OX63 radical (Sample 1). The SNR from the spectral sequence depicted in FIG. 9 are shown in the corresponding table.
FIG. 10. 13C NMR spectrum of hyperpolarized CD3 ^13COO^−Na^+ using Finland radical (Sample 2). The SNR from the spectral sequence depicted in FIG. 10 are shown in the corresponding table.
C. A sample of the proposed molecule, Sodium ^13Cl-acetate-d3, was hyperpolarized in water with two different electron donors (FIGS. 9 & 10) in a DNP HyperSense polarizer, and the time course of the decay of the magnetization studied. The SNR obtained from the first spectrum collected from polarized sample 2 is clearly less than that obtained from sample 1, showing that Sodium acetate has a preference for the more polar radical OX63. Both OX63 and Finland are triaryl based radicals and are commercially available form Oxford Instruments, UK. Clearly, the inventors' molecule can render over 10,000 fold signal enhancement by DNP with very long T1 time. The polarization will survive around 325 seconds (5 T1). This allows a large enough time (>5 minutes) window to effectively monitor the first six minutes of uptake and metabolism of hyperpolarized sodium acetate within the glial cells of the rat brain by ^13C NMR.

^13C1-^13C5 deuterated glutamine
T1 of the Product ([1]; Table 2, product of PASADENA or DNP hyperpolarization): 40 s

1-^13C glucose [perdeuterated 1-^13C of glucose]
experimentally determined T1 ([1]; 1-13C of perdeuterated glucose): 20 s | time window of observing the transfer of polarization (5 T1) ([1]; hyperpolarized glucose metabolized to TCA cycle metabolites): ~100 s

Sodium ^13Cl-acetate-d3
polarization survival time (5 T1) [2]: around 325 seconds
